Measurements taken from patent US10562912B2 (C&C Research Laboratories, priority 2013, dated 2020).

What was measured:
Type in all cases: cell-based
[1] = test system: MDA-MB-231; experiment: Cell growth inhibition assay, breast cancer cell line MDA-MB-231; settings: Homo sapiens; MDA-MB-231 breast cancer cell line, 5,000 cells/well
[2] = test system: AGS; experiment: Cell growth inhibition assay, stomach cancer cell line AGS; settings: Homo sapiens; AGS stomach cancer cell line, 3,000 cells/well
[3] = target: T1, STAT3 (Homo sapiens, UniProt P40763); experiment: STAT3 reporter gene assay (luciferase), LNCaP stable cell line (pSTAT3-TA-luc), IL-6 stimulation
T1 construct: plasmid pSTAT3-TA-luc), which contains a stably operating STAT3 promoter; endogenous in cells
In short: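 Cytotoxicity was run on a duplicate plate with CellTiter-Glo, while the other plate gave luciferase read-outs from lysed LNCaP pSTAT3-TA-luc reporter cells. Cells were treated with graded compound concentrations plus IL-6 (10 ng/mL final) for 24–48 h in 3% DCC-FBS medium. Unstimulated and stimulated wells served as negative and positive controls.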

[4] = test system: LNCaP; experiment: Cell growth inhibition assay, prostate cancer cell line LNCaP (medium with 10 ng/mL IL-6); settings: Homo sapiens, medium supplemented with 10 ng/mL of IL-6, 10,000 cells/well

T1 sequence (P40763 whole entry): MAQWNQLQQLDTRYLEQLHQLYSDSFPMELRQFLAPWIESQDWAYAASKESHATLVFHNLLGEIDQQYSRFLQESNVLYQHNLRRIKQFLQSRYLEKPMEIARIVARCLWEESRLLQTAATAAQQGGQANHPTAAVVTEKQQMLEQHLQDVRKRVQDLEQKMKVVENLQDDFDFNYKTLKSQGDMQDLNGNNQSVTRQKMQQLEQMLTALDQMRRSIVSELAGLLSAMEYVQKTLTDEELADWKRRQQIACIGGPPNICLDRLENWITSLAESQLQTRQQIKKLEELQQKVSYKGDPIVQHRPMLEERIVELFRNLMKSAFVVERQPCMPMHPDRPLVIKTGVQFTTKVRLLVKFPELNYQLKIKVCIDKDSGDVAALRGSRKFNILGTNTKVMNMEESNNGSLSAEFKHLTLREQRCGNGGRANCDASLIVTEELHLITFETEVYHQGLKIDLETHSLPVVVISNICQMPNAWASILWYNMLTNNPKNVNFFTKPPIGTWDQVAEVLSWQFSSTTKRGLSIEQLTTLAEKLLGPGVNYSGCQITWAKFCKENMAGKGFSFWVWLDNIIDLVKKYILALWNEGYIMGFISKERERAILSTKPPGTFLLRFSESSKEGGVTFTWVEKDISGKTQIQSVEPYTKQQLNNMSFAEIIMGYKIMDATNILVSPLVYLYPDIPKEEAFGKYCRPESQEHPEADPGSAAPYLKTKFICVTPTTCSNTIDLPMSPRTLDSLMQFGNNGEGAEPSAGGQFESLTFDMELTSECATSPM

Compound	IC50 [1] [µM]	IC50 [2] [µM]	IC50 [3] [µM]	IC50 [4] [µM]
CC(C)COc1cc(NC(=O)c2cc3ccc(NS(C)(=O)=O)cc3[nH]2)cc(-c2ccc(F)cc2F)c1 [Example 367, N-(2′,4′-difluoro-5-isobutoxy-[1,1′-biphenyl]-3-yl)-6-(methylsulfonamido)-1H-indole-2-carboxamide]	1.1	9.5	0.38	7.4
CS(=O)(=O)Nc1ccc2c(C(=O)Nc3cccc(-c4ccc(F)cc4F)c3)c[nH]c2c1 [Example 275, N-(2′,4′-difluoro-[1,1′-biphenyl]-3-yl)-6-(methylsulfonamido)-1H-indole-3-carboxamide]	> 10	5.7	3.3	9
CN(c1ccc2cc(C(=O)Nc3cc(Br)cc(-c4ccc(F)cc4F)c3)[nH]c2c1)S(C)(=O)=O [Example 342, N-(5-bromo-2′,4′-difluoro-[1,1′-biphenyl]-3-yl)-6-(N-methylmethylsulfonamido)-1H-indole-2-carboxamide]	0.52	9.6	0.39	5
COc1cc(NC(=O)c2cc3ccc(N(C)S(C)(=O)=O)cc3[nH]2)cc(-c2ccc(F)cc2F)c1 [Example 347, N-(2′,4′-difluoro-5-methoxy-[1,1′-biphenyl]-3-yl)-6-(N-methylmethylsulfonamido)-1H-indole-2-carboxamide]	0.61	19.7	1.5	7.9
CS(=O)(=O)Nc1ccc2cc(C(=O)Nc3cc(OCC(F)F)cc(S(=O)(=O)c4cccc(OC(F)(F)F)c4)c3)[nH]c2c1 [Example 401, N-(3-(2,2-difluoroethoxy)-5-((3-(trifluoromethoxy)phenyl)sulfonyl)phenyl)-6-(methylsulfonamido)-1H-indole-2-carboxamide]	2.5	7.3	4	8
CS(=O)(=O)Nc1ccc2cc(C(=O)Nc3cccc(S(=O)(=O)c4ccccc4)c3)[nH]c2c1 [Example 395, 6-(methylsulfonamido)-N-(3-(phenylsulfonyl)phenyl)-1H-indole-2-carboxamide]	4.2	20.6	2.1	> 10
CS(=O)(=O)Nc1ccc2cc(C(=O)Nc3cc(OCC(F)F)cc(C(F)(F)c4cccc(C#N)c4)c3)[nH]c2c1 [Example 391, N-(3-((3-cyanophenyl)difluoromethyl)-5-(2,2-difluoroethoxy)phenyl)-6-(methylsulfonamido)-1H-indole-2-carboxamide]	3.3	18.1	2.4	> 10
CS(=O)(=O)Nc1ccc2cc(C(=O)Nc3cc(C(F)(F)F)cc(S(=O)(=O)c4cccc(OC(F)(F)F)c4)c3)[nH]c2c1 [Example 398, 6-(methylsulfonamido)-N-(3-((3-(trifluoromethoxy)phenyl)sulfonyl)-5-(trifluoromethyl)phenyl)-1H-indole-2-carboxamide]	1.2	5.2	1.6	2.6
COc1cc(NC(=O)c2cc3ccc(NS(C)(=O)=O)cc3[nH]2)cc(S(=O)(=O)c2cccc(OC(F)(F)F)c2)c1 [Example 397, N-(3-methoxy-5-((3-(trifluoromethoxy)phenyl)sulfonyl)phenyl)-6-(methylsulfonamido)-1H-indole-2-carboxamide]	2.8	8.7	3	5.8
CS(=O)(=O)Nc1ccc2cc(C(=O)Nc3cc(C#N)cc(S(=O)(=O)c4cccc(OC(F)(F)F)c4)c3)[nH]c2c1 [Example 399, N-(3-cyano-5-((3-(trifluoromethoxy)phenyl)sulfonyl)phenyl)-6-(methylsulfonamido)-1H-indole-2-carboxamide]	3.4	13.2	2.8	> 10
CS(=O)(=O)Nc1ccc2cc(C(=O)Nc3cccc(-c4ccccc4C(F)(F)F)c3)[nH]c2c1 [Example 260, 6-(methylsulfonamido)-N-(2′-(trifluoromethyl)-[1,1′-biphenyl]-3-yl)-1H-indole-2-carboxamide]	0.92	2.7	0.71	4.1
CS(=O)(=O)Nc1ccc2cc(C(=O)Nc3cccc(C(F)(F)c4cccc(C#N)c4)c3)[nH]c2c1 [Example 390, N-(3-((3-cyanophenyl)difluoromethyl)phenyl)-6-(methylsulfonamido)-1H-indole-2-carboxamide]	1.1	9.6	3.7	2.5
CS(=O)(=O)Nc1ccc2cc(C(=O)Nc3cc(OCC#N)cc(C(F)(F)c4cccc(C#N)c4)c3)[nH]c2c1 [Example 393, N-(3-(cyanomethoxy)-5-((3-cyanophenyl)difluoromethyl)phenyl)-6-(methylsulfonamido)-1H-indole-2-carboxamide]	5	10.3	> 10	> 10
CS(=O)(=O)Nc1ccc2cc(C(=O)Nc3cccc(S(=O)(=O)c4cccc(OC(F)(F)F)c4)c3)[nH]c2c1 [Example 396]	1.2	11.8	2.5	8.9
COc1cc(NC(=O)c2cc3ccc(N(C)S(C)(=O)=O)cc3n2C)cc(-c2ccc(F)cc2F)c1 [Example 348, N-(2′,4′-difluoro-5-methoxy-[1,1′-biphenyl]-3-yl)-1-methyl-6-(N-methylmethylsulfonamido)-1H-indole-2-carboxamide]	> 10	4.8	> 10	7.2
CC(C)COc1cc(NC(=O)c2cc3ccc(NS(C)(=O)=O)cc3[nH]2)cc(S(=O)(=O)c2cccc(OC(F)(F)F)c2)c1 [Example 400, N-(3-isobutoxy-5-((3-(trifluoromethoxy)phenyl)sulfonyl)phenyl)-6-(methylsulfonamido)-1H-indole-2-carboxamide]	3.5	14.9	3.2	> 10
CS(=O)(=O)Nc1ccc2cc(C(=O)Nc3cccc(-c4cccnc4C(F)(F)F)c3)[nH]c2c1 [Example 293, 6-(methylsulfonamido)-N-(3-(2-(trifluoromethyl)pyridin-3-yl)phenyl)-1H-indole-2-carboxamide]	1	24.6	2.7	4.6
CS(=O)(=O)Nc1ccc2cc(C(=O)Nc3cc(C#N)cc(-c4ccc(F)cc4F)c3)[nH]c2c1 [Example 301, N-(5-cyano-2′,4′-difluoro-[1,1′-biphenyl]-3-yl)-6-(methylsulfonamido)-1H-indole-2-carboxamide]	0.72	5.7	3.3	3.9
CN(c1ccc2cc(C(=O)Nc3cc(Br)cc(-c4ccc(F)cc4F)c3)n(C)c2c1)S(C)(=O)=O [Example 341, N-(5-bromo-2′,4′-difluoro-[1,1′-biphenyl]-3-yl)-1-methyl-6-(N-methylmethylsulfonamido)-1H-indole-2-carboxamide]	7.5	5.3	3.3	6.2
CS(=O)(=O)Nc1ccc2cc(C(=O)Nc3cc(OCC(F)F)cc(-c4ccc(F)cc4F)c3)[nH]c2c1 [Example 366, N-(5-(2,2-difluoroethoxy)-2′,4′-difluoro-[1,1′-biphenyl]-3-yl)-6-(methylsulfonamido)-1H-indole-2-carboxamide]	0.58	8.9	1.2	6.2
CS(=O)(=O)Nc1ccc2cc(C(=O)Nc3cc(OCC#N)cc(-c4ccc(F)cc4F)c3)[nH]c2c1 [Example 368, N-(5-(cyanomethoxy)-2′,4′-difluoro-[1,1′-biphenyl]-3-yl)-6-(methylsulfonamido)-1H-indole-2-carboxamide]	1.7	11.5	2.7	9.8
NS(=O)(=O)Nc1ccc2cc(C(=O)Nc3cccc(-c4ccccc4C(F)(F)F)c3)[nH]c2c1 [Example 265, 6-(sulfamoylamino)-N-(2′-(trifluoromethyl)-[1,1′-biphenyl]-3-yl)-1H-indole-2-carboxamide]		11.4	4.2	> 10
Cn1c(C(=O)Nc2cccc(-c3ccccc3C(F)(F)F)c2)cc2cc([N+](=O)[O-])ccc21 [Example 250, 1-methyl-5-nitro-N-(2′-(trifluoromethyl)-[1,1′-biphenyl]-3-yl)-1H-indole-2-carboxamide]		22	> 10	> 10
